The test system of test [1] is Human promyelocytic leukemia (HL60) cells. Kind of test: HL-60 differentiation (nitro blue tetrazolium reduction). The conditions noted are these: four days after treatment. Format: cell-based. Here is the method: The study drugs were dissolved in ethanol and the concentrations determined using UV spectrophotometry. Serial dilutions were prepared so that a range of drug concentrations could be tested without changing the final concentration of ethanol (≦0.2%) present in the cell cultures.
Human promyelocytic leukemia (HL60) cells were grown in RPMI-1640 medium containing 10% fetal bovine serum. The cells were incubated at 37° C. in the presence of 5% CO2.
HL60 cells were plated at 1.2×10^5 cells/ml. Eighteen hours after plating, cells in duplicate were treated with drug. Four days later, the cells were harvested and a nitro blue tetrazolium reduction assay was performed (Collins et al., 1979; J. Exp. Med. 149:969-974). The percentage of differentiated cells was determined by counting a total of 200 cells and recording the number that contained intracellular black-blue formazan deposits. Verification of differentiation to monocytic cells was determined by measuring phagocytic activity (data not shown).

Test [2] deals with T1, full-length recombinant rat vitamin D receptor (Rattus norvegicus, UniProt P13053).
T1 construct: Full-length recombinant rat receptor was expressed in E. coli BL21 (DE3) Codon Plus RIL cells; histidine tag (C); made in house; host or cells: E. coli BL21 (DE3) Codon Plus RIL
T1 sequence (P13053 1-423): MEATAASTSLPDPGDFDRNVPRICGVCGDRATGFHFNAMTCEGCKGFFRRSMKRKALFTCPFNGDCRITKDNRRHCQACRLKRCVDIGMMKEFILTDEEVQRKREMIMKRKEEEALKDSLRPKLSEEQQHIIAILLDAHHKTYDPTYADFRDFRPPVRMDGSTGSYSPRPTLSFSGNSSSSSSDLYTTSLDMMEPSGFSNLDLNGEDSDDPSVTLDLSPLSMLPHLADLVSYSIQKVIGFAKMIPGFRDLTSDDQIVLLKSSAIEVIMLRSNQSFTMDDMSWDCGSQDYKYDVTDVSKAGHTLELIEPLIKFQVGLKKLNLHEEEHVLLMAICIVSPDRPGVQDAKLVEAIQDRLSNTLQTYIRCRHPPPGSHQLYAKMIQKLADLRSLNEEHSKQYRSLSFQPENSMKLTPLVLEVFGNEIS
Kind of test: Vitamin D receptor binding, competition with [3H]-1,25(OH)2D3. To be noted: full-length recombinant rat VDR; 1 nM radioligand. The source says:
Vitamin D Receptor Binding
Full-length recombinant rat receptor was expressed in E. coli BL21 (DE3) Codon Plus RIL cells and purified to homogeneity using two different column chromatography systems. The first system was a nickel affinity resin that utilizes the C-terminal histidine tag on this protein. The protein that was eluted from this resin was further purified using ion exchange chromatography (S-Sepharose Fast Flow). Aliquots of the purified protein were quick frozen in liquid nitrogen and stored at −80° C. until use. For use in binding assays, the protein was diluted in TEDK50 (50 mM Tris, 1.5 mM EDTA, pH7.4, 5 mM DTT, 150 mM KCl) with 0.1% Chaps detergent. The receptor protein and ligand concentration were optimized such that no more than 20% of the added radiolabeled ligand was bound to the receptor.
Radiolabeled and unlabeled ligands were added to 100 mcl of the diluted protein at a final ethanol concentration of ≦10%, mixed and incubated overnight on ice to reach binding equilibrium. The following day, 100 mcl of hydroxylapatite slurry (50%) was added to each tube and mixed at 10-minute intervals for 30 minutes. The hydroxylapaptite was collected by centrifugation and then washed three times with Tris-EDTA buffer (50 mM Tris, 1.5 mM EDTA, pH 7.4) containing 0.5% Titron X-100. […] Total binding was determined from the tubes containing only radiolabeled ligand.

Test [3] can be described thus: Bone calcium mobilization (serum calcium) in vitamin D-deficient rats. Format: in vivo, Sprague-Dawley rats. As to the method: Male, weanling Sprague-Dawley rats were placed on Diet 11 (0.47% Ca) diet+AEK for one week followed by Diet 11 (0.02% Ca)+AEK for 3 weeks. The rats were then switched to a diet containing 0.47% Ca for one week followed by two weeks on a diet containing 0.02% Ca. Dose administration began during the last week on 0.02% calcium diet. Four consecutive ip doses were given approximately 24 hours apart. Twenty-four hours after the last dose, blood was collected from the severed neck and the concentration of serum calcium determined as a measure of bone calcium mobilization. The first 10 cm of the intestine was also collected for intestinal calcium transport analysis using the everted gut sac method.
Calcium mobilization from bone in vitamin D-deficient animals.

Test [4] has as its system 24-hydroxylase (24Ohase) gene promoter in ROS 17/2.8 (bone) cells. Kind of test: In vitro transcription assay (24-hydroxylase promoter luciferase reporter). Type of test: cell-based. To be noted: ROS 17/2.8 cells, 24Ohase-luciferase, sixteen hours after dosing; read-out: EC50, transcriptional activity in bone cells. Here is the method:
In Vitro Transcription Assay
Transcription activity was measured in ROS 17/2.8 (bone) cells that were stably transfected with a 24-hydroxylase (24Ohase) gene promoter upstream of a luciferase reporter gene (Arbour et al., 1998). Cells were given a range of doses. Sixteen hours after dosing the cells were harvested and luciferase activities were measured using a luminometer. • RLU=relative luciferase units. Intestinal Calcium Transport and Bone Calcium Mobilization
On the technique in general: Reporter assays use an easily measured gene product as a stand-in for the process of interest.

Setting [5] is: low calcium diet (0.02%), four consecutive ip doses, overall / all dosages.

As a reminder, the EC50 is the concentration at which the effect is half-maximal. The term Ki denotes the dissociation constant of the complex between target and ligand, obtained from inhibition or displacement.

As to `CCCCC(C)C1CCC2C(=CC=C3CC(O)C(C)C(O)C3)CCCC21C` (single isomer, unassigned) [C-19], the EC50 was determined as 8.2 nM in test [1] and 10 nM in test [4]. Besides, the Ki in test [2] is 0.22 nM. Besides, the “calcium mobilization from bone (serum calcium)” value in test [3] (0.02% Ca diet, 780 pmol/day for 4 consecutive days) is recorded as “did not result in mobilization of bone calcium”; in test [3] (0.02% Ca diet, 2340 pmol/day) it was “without any substantial effect”; in test [3] (0.02% Ca diet, 7020 pmol/day) it was “without any substantial effect”; in test [3] (setting [5]) it was “little, if any, activity in mobilizing calcium from bone”.

Regarding `CCCCC(C)C1CCC2C(=CC=C3CC(O)C(C)C(O)C3)CCCC21C` (single isomer, unassigned) [N-16], the EC50 in test [1] and in test [4] was 100 nM in each case. Further, in test [2], the Ki worked out at 10 nM.

Regarding `C=C1/C(=C\C=C2/CCC[C@]3(C)[C@@H]([C@H](C)CCCC(C)(C)O)CC[C@@H]23)C[C@@H](O)C[C@@H]1O` [1,25(OH)2D3, 1α,25-dihydroxyvitamin D3, reference compound], the response in test [1] was half-maximal at 2.9 nM (EC50). Besides, in test [3] (setting [5]), the “calcium mobilization from bone (serum calcium)” value is “increased serum calcium levels at all dosages”.

Values taken from patent publication US8614202B2, “2α-methyl and 2β-methyl analogs of 19,26,27-trinor-(20S)-1α-hydroxyvitamin D3 and their uses” (Wisconsin Alumni Research Foundation, priority 2004, dated 2013).
